pIC50: −log10 of the molar value. Where two headings read alike, the source gives them in different places.
Columns and labels:
[1] = test system: human bladder cancer UM-UC-3 cells; experiment: MTT cell growth and proliferation assay, UM-UC-3 cells; assay type: cell-based; details: Homo sapiens, read-out: IC50, inhibition of cell proliferation
Procedure: (§1) FIG. 3. The effect of AITC on cell survival and proliferation. AITC was evaluated at the indicated concentrations in human bladder cancer UM-UC-3 cells, rat bladder cancer AY-27 cells, and normal human bladder epithelial cells (HUC). A. Cell growth inhibition, measured by MTT assay, 72-h AITC treatment. IC50 was calculated from nonlinear regression curve fit. B. Cell cycle arrest (□, subG1; ? , G1; ? , 5; ▪, G2/M), measured by flow cytometry, 24 h AITC treatment. C. Apoptosis induction, measured by an ELISA assay, 24 h AITC treatment. Mean±SE, n=3-6), *P<0.05.
(§2) FIG. 10. The effect of NAC-AITC on cell survival and proliferation. NAC-AITC was evaluated in both UM-UC-3 cells and AY-27 cells. (A) Chemical structures of AITC and NAC-AITC. (B) Cell growth and proliferation, measured by 3-([…])-2,5-diphenyltetrazolium bromide assay, 72 h treatment with AITC or NAC-AITC at indicated concentrations. IC50 was calculated from the non-linear regression curve fit. (C) Apoptosis, measured by an enzyme-linked immunosorbent assay, 24 h NAC-AITC treatment at 15 µM. (D) Cell cycle (open bars, G1; shaded bars, S; closed bars, G2/M), measured by flow cytometry, 24 h NAC-AITC treatment at 15 μM. *P<, 0.005, compared with control.
Assays for cell proliferation, cell cycle arrest and apoptosis. To determine the antiproliferative activity of NAC-AITC, AY-27 cells were grown in 96-well microtiter plates ([…] with 0.15 ml medium per well) for 24 h and then grown for 72 h in fresh medium (0.2 ml/well) containing a series of concentrations of NAC-AITC or solvent. Cell growth was measured at the end of treatment using the 3-([…])-2,5-diphenyltetrazolium bromide assay, from which the half maximal inhibitory concentration (IC50) of NAC-AITC was calculated. AITC was also evaluated for comparison.

[2] = test system: AY-27 cells; experiment: Cell cycle arrest by flow cytometry, AY-27 cells; assay type: cell-based, rat; details: 24 h
Procedure: as §1, §2
The effect of NAC-AITC on cell cycle progression was measured by flow cytometry as described previously. Briefly, 1.5×10^6 AY-27 cells were grown in each 10-cm plate with 10 ml medium for 24 h and then treated with NAC-AITC or solvent for 24 h before analysis. Induction of apoptosis by NAC-AITC was measured using the Cell Death Detection ELISA^plus kit (Roche Diagnostics, Indianapolis, Ind.), following the manufacturer's instruction. […] At the end of treatment, the cells were treated with lysis buffer, and after a low-speed centrifugation, a portion of the supernatant fraction was used for spectroscopic measurement (expressed as A405-490 nm) of cytoplasmic levels of histone-associated mononucleosomes or oligonucleosomes by an enzyme-linked immunosorbent assay. […]

[3] = test system: orthotopic AY-27 bladder tumor; experiment: Orthotopic rat bladder cancer model; assay type: in vivo, rat (female F344); details: for tumor-bearing bladders showing muscle invasion: control 71%
Source text: FIG. 6. […] Female F344 rats were inoculated intravesically with bladder cancer AY-27 cells to initiate development of orthotopic bladder tumor. Oral administration of AITC at 0, 10, 25, 50 and 300 micromols/kg once daily was started 1 day after AY-27 cell inoculation and ended 3 weeks later. The number of rats per group varied from 6 to 33; some of the data, particularly the control group (n=33) and the group treated with the lowest dose of AITC (n=23), were pooled from several experiments. A. The initial and final body weights. B. The weights of bladder tumors. […] C. Percentage of bladders where the tumor invaded the muscle tissue. D. H/E staining of the normal rat bladder wall (D1), a superficial rat bladder tumor (D2), and a rat bladder tumor that invaded the muscle layer (D3).
FIG. 8. […] Female F344 rats were inoculated with AY-27 cells intravesically via a urethra catheter to initiate development of orthotopic bladder cancer. Oral administration of MSP-1 of vehicle (water) once daily was started 1 day after cancer cell inoculation and ended 3 weeks later. The number of rats per group varied from 11-29. A. Initial (□) and final (▪) body weights. […] Each value in A and B is mean±SEM. C. Percentage of bladder where the tumor invaded the muscle tissue. D. The effects of MSP-1 on selected anticancer targets in UM-UC-3 cells (in vitro), AY-27 cells (in vitro) and AY-27 tumors (in vivo). […] The bladder tumors were removed from rats treated with MSP-1 at the sinigrin doses of 9 or 90 micromols/kg once daily for 3 weeks, started 1 day after cancer cell inoculation. Cell lysates and tumor homogenates were analyzed by Western blotting, using GAPDH as a loading control.
FIG. 9. […] Female F344 rats were inoculated with bladder cancer AY-27 cells to initiate development of orthotopic bladder tumor. Oral administration of the powder (sinigrin and glucoraphanin: each at 10 micromols/kg) once daily was started 1 day after AY-27 cell inoculation and ended 3 weeks later. The number of rats per group was 9-10. Each value is mean±SE.
FIG. 12. […] Bladder cancer was initiated in female F344 rats by orthotopic inoculation of bladder cancer AY-27 cells. Oral administration of NAC-AITC at 10 μmmol/kg body wt once daily was started 1 day after cancer cell inoculation and ended 3 weeks later. There were 23 rats in the control group and 15 rats in the treatment group. (A) The initial (open bars) and final (closed bars) body weight. (B) Bladder tumor weight. Each value is a mean±SE. (C) Percentage of bladders where the tumor invaded the muscle tissue.
AITC was evaluated in an orthotopic rat bladder cancer model. […] Daily oral administration of AITC was initiated one day after instillation of AY-27 cells and continued for 3 weeks. AITC was evaluated at 4 dose levels: 10, 25, 50 and 300 micromols/kg. […] FIG. 6D depicts representative images of normal rat bladder wall (D1), a superficial AY-27 rat bladder tumor (D2), and a muscle-invasive AY-27 rat bladder tumor (D3).
A syngeneic orthotopic rat bladder cancer model.

[4] = Storage stability at room temperature; assay type: physicochemical; details: data not shown
[5] = test system: cyclooxygenase-2 (Cox-2) in human bladder cancer HT1376 cells; experiment: Western blot analysis of Cox-2 in HT1376 cells; assay type: cell-based; details: 24 h, cells overexpressing Cox-2
Procedure: FIG. 5. The effects of AITC and SF on cyclooxygenase-2 (Cox-2) expression in human bladder cancer cells. Human bladder cancer HT1376 cells that over express Cox-2 were treated with AITC or SF at the indicated concentrations for 24 h and then harvested for Western blot analysis of Cox-2. GAPDH is used as a loading control.

[6] = 10 μmol/kg body wt oral once daily, 3 weeks

Row | SMILES | pIC50 ([1]; UMUC3, Example 9, 72 h treatment) | cells in G2/M phase ([2]; NAC-AITC 15 µM, control 11-12%) [%] | inhibition of muscle invasion [3, 6] [%] | inhibition of tumor growth [3, 6] [%] | effect on body weight ([3]; NAC-AITC 10 μmol/kg daily, 3 weeks) | bladders with muscle invasion ([3]; NAC-AITC 10 μmol/kg, control 79%) [%] | stability when kept dry [4] | pIC50 ([1]; UMUC3, 72 h) | cells in G2/M phase ([2]; AITC 7.5-15 microM, control 9.9-11.5%) [%] | increase in subG1 population ([2]; AITC) [fold] | effect on Cox-2 expression [5] | tumor-bearing bladders showing muscle invasion ([3]; AITC 10 micromols/kg) [%] | tumor-bearing bladders showing muscle invasion ([3]; AITC 25 micromols/kg) [%] | tumor-bearing bladders showing muscle invasion ([3]; AITC 50 or 300 micromols/kg) [%] | inhibition of orthotopic bladder cancer growth ([3]; AITC 300 micromols/kg oral daily, 3 weeks) [%] | inhibition of tumor growth ([3]; AITC lower dose levels (10, 25, 50 micromols/kg) oral daily, 3 weeks) [%]
1 | C=CCNC(=S)SC[C@H](NC(C)=O)C(=O)O [NAC-AITC, N-acetyl-S—(N-allylthiocarbamoyl)cysteine] | 5.13 | 45 | 49 | 40 | no significant effect on body weight | 30 | at least 16 months |  |  |  |  |  |  |  |  | 
2 | C=CCN=C=S [AITC, allyl isothiocyanate] |  |  | 73 | 30 |  |  |  | 5.57 | ≤ 49 | ≤ 7.8 | not detectable | 18.9 | 27 | 50 | 20 | 30

Source: patent US9486434B2, “Method for delivery and use of isothiocyanates for prophylaxis and/or therapy of bladder cancer” (Health Research Inc., priority 2010, dated 2016)
